Results: paper PMC4585962, “A peptide factor secreted by Staphylococcus pseudintermedius exhibits properties of both bacteriocins and virulence factors” (Scientific Reports, 2015)
No end group written: not given here. *: point of attachment. For = O=C*

How the values were obtained:
[1] = system: Bacillus subtilis ATCC 6633; assay: MIC, microdilution assay; format: cell-based; conditions: broth microdilution (CLSI), MHB, overnight 37 °C, OD 600 nm; mean of three independent measurements
Experimental: (§1) The microbicidal activity of BacSp222 was determined using the microdilution method in compliance with Clinical and Laboratory Standards Institute (CLSI, for bacteria) guidelines M7-A7[57] and in compliance with the European Committee on Antimicrobial Susceptibility Testing - Subcommittee on Antifungal Susceptibility Testing (EUCAST-AFST, for fungi)[58]. Briefly, the microorganisms were cultivated in dedicated liquid media to reach the early exponential phase or, in the case of Streptococcus spp., grown overnight on agar MHB supplemented with 2.5% (v/v) lysed horse blood (LHB). Subsequently, the microorganisms were diluted to 1 × 10^6 CFU/ml (estimated using an Eddy Jet 2 automatic spiral plater, IUL) in MHB; in MHB supplemented with 5% (v/v) LHB (for streptococci); or, in the case of Candida albicans, in RPMI-1640 medium (Thermo) without L-Glu and phenol red, supplemented with 0.6 g/l L-Glu, 34.53 g/l 3-(N-morpholino)propanesulphonic acid and 18 g/l glucose, pH 7.0. Fifty microliters of microorganism suspension were mixed with an equal volume of appropriate medium containing serial 2- or 1.5-fold dilutions of BacSp222. After the cultures were incubated overnight at 37 °C, the optical density (OD) at 600 nm was measured. The minimal inhibitory concentration (MIC), calculated as a mean value from three independent measurements, was defined as the minimum peptide concentration for which an increase in OD was not observed compared to uninoculated broth.

Escherichia coli K12 = assay: MIC, microdilution assay; format: cell-based; conditions: broth microdilution (CLSI), MHB, overnight 37 °C, OD 600 nm; highest concentration tested 100 μM
Experimental: as §1

[2] = system: Klebsiella pneumoniae ATCC 13886; assay: MIC, microdilution assay; format: cell-based; conditions: broth microdilution (CLSI), MHB, overnight 37 °C, OD 600 nm; highest concentration tested 100 μM
Experimental: as §1

[3] = system: Lactococcus lactis subsp. lactis ŁOCK 0871 strain 239; assay: MIC, microdilution assay; format: cell-based; conditions: broth microdilution (CLSI), MHB, overnight 37 °C, OD 600 nm; mean of three independent measurements
Experimental: as §1

[4] = system: Micrococcus luteus ATCC 4698; assay: MIC, microdilution assay; format: cell-based; conditions: broth microdilution (CLSI), MHB, overnight 37 °C, OD 600 nm; mean of three independent measurements
Experimental: as §1

[5] = system: Serratia marcescens ATCC 274; assay: MIC, microdilution assay; format: cell-based; conditions: broth microdilution (CLSI), MHB, overnight 37 °C, OD 600 nm; highest concentration tested 100 μM
Experimental: as §1

[6] = system: Staphylococcus aureus ATCC 25923; assay: MIC, microdilution assay; format: cell-based; conditions: broth microdilution (CLSI), MHB, overnight 37 °C, OD 600 nm; mean of three independent measurements
Experimental: as §1

[7] = system: Staphylococcus aureus DSM 26258 (CH91); assay: MIC, microdilution assay; format: cell-based; conditions: broth microdilution (CLSI), MHB, overnight 37 °C, OD 600 nm; mean of three independent measurements
Experimental: as §1

[8] = system: Staphylococcus aureus KB/8658; assay: MIC, microdilution assay; format: cell-based; conditions: broth microdilution (CLSI), MHB, overnight 37 °C, OD 600 nm; mean of three independent measurements
Experimental: as §1

[9] = system: Staphylococcus aureus MRSA USA300 strain FPR3757; assay: MIC, microdilution assay; format: cell-based; conditions: broth microdilution (CLSI), MHB, overnight 37 °C, OD 600 nm; mean of three independent measurements
Experimental: as §1

[10] = system: Staphylococcus epidermidis ATCC 35547; assay: MIC, microdilution assay; format: cell-based; conditions: broth microdilution (CLSI), MHB, overnight 37 °C, OD 600 nm; mean of three independent measurements
Experimental: as §1

[11] = system: Staphylococcus intermedius ATCC 29663; assay: MIC, microdilution assay; format: cell-based; conditions: broth microdilution (CLSI), MHB, overnight 37 °C, OD 600 nm; mean of three independent measurements
Experimental: as §1

[12] = system: Staphylococcus intermedius R-2725; assay: MIC, microdilution assay; format: cell-based; conditions: broth microdilution (CLSI), MHB, overnight 37 °C, OD 600 nm; mean of three independent measurements
Experimental: as §1

[13] = system: Staphylococcus pseudintermedius 222; assay: MIC, microdilution assay; format: cell-based; conditions: bacteriocin-producing strain; broth microdilution (CLSI), MHB, overnight 37 °C, OD 600 nm; mean of three independent measurements
Experimental: as §1

[14] = system: Staphylococcus pseudintermedius LMG 22219; assay: MIC, microdilution assay; format: cell-based; conditions: nonproducer strain; broth microdilution (CLSI), MHB, overnight 37 °C, OD 600 nm; mean of three independent measurements
Experimental: as §1

[15] = system: Staphylococcus saprophyticus ATCC 15305; assay: MIC, microdilution assay; format: cell-based; conditions: broth microdilution (CLSI), MHB, overnight 37 °C, OD 600 nm; mean of three independent measurements
Experimental: as §1

[16] = system: Streptococcus pyogenes PCM 465; assay: MIC, microdilution assay; format: cell-based; conditions: broth microdilution (CLSI), MHB with 5% lysed horse blood, overnight 37 °C, OD 600 nm; mean of three independent measurements
Experimental: as §1

[17] = molecular target: T1, bovine TPCK-treated trypsin (Bos taurus, UniProt P00760); assay: Susceptibility to proteolysis, residual bactericidal activity; format: in vitro ADME; conditions: 30 μM peptide, 100 mM Tris-HCl pH 8.0 with 5 mM CaCl2, enzyme:peptide 1:50 or 1:10 (w/w), 3 hours, 37 °C; residual activity by radial diffusion assay on B. subtilis; triplicate
T1 construct: purchased Sigma
Experimental: (§2) The bactericidal activity of BacSp222 was also determined using the radial diffusion assay. In TSB agar (1%, w/v) containing a 200× diluted overnight culture of Bacillus subtilis ATCC 6633, wells of 2.4-mm diameter were created by drilling out the agar and filling the hole with 10 μl of the BacSp222 preparation for testing. Following overnight incubation at 37 °C, the bactericidal activity was measured as the area of the inhibition zones.
(§3) The temperature stability of BacSp222 (30 μM final concentration) was determined in PBS. The solution was incubated for 1 or 3 h at 72 °C (typical temperature of pasteurization) or at 100 °C. Independently, a solution of bacteriocin was also subjected to a full cycle of autoclaving (20 min at 121 °C). The susceptibility of BacSp222 to proteolysis was verified using S. aureus staphopain C and V8 peptidase, human neutrophil elastase, human cathepsin G (Biocentrum), bovine TPCK-treated trypsin, pepsin from porcine gastric mucosa (Sigma), and proteinase K (A&A Biotechnology). The dried samples of BacSp222 were dissolved to a final concentration of 30 μM in the following buffers: 100 mM Tris-HCl pH 8.0 containing 5 mM CaCl2 (for trypsin and proteinase K), 100 mM Tris-HCl pH 7.5 containing 5 mM cysteine hydrochloride and 5 mM EDTA (for staphopain C), 100 mM Tris-HCl pH 8.0 (for elastase), 100 mM Tris-HCl pH 7.5 containing 500 mM NaCl (for cathepsin G), 100 mM sodium phosphate pH 7.8 (for V8 peptidase), and 100 mM ammonium acetate pH 4.0 (for pepsin). The peptidases were added at 1:50 or 1:10 (enzyme:BacSp222) ratios by weight, and the mixtures were incubated for 1 or 3 h at 37 °C. The residual activity was determined with the radial diffusion assay using Bacillus subtilis as an indicator strain. All of the above experiments were performed in triplicate.

human cathepsin G = molecular target: T2, human cathepsin G (Homo sapiens, UniProt P08311); assay: as above; format: in vitro ADME; conditions: 30 μM peptide, 100 mM Tris-HCl pH 7.5 with 500 mM NaCl, enzyme:peptide 1:50 or 1:10 (w/w), 3 hours, 37 °C; residual activity by radial diffusion assay on B. subtilis; triplicate
T2 construct: purchased Biocentrum
Experimental: as §2, §3

T2 sequence (P08311 21-255): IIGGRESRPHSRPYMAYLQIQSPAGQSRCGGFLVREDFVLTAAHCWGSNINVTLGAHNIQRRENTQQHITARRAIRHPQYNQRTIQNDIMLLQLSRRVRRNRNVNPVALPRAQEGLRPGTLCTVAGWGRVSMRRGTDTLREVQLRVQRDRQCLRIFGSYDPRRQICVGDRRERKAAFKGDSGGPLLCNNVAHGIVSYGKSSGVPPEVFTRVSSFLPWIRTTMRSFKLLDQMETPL
T1 sequence (P00760 24-246): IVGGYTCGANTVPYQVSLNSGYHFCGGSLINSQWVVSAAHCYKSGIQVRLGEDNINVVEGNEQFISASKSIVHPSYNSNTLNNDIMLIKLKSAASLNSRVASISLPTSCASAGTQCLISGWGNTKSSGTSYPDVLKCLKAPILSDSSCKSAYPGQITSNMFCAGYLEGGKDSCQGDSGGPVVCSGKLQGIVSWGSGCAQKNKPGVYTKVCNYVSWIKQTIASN

For-MAGLLRFLLSKGRALYNWAKSHVGKVWEWLKSGATYEQIKEWIENALGWR [BacSp222]
MIC ± SD [1]: 0.16 ± 0.00 µM
MIC ± SD (Escherichia coli K12): >100 µM
MIC ± SD [2]: >100 µM
MIC ± SD [3]: 0.89 ± 0.00 µM
MIC ± SD [4]: 0.11 µM
MIC ± SD [5]: >100 µM
MIC ± SD [6]: 1.00 ± 0.36 µM
MIC ± SD [7]: 0.92 ± 0.23 µM
MIC ± SD [8]: 1.30 ± 0.00 µM
MIC ± SD [9]: 0.89 ± 0.00 µM
MIC ± SD [10]: 4.40 ± 0.00 µM
MIC ± SD [11]: 2.00 ± 0.00 µM
MIC ± SD [12]: 1.20 ± 0.24 µM
MIC ± SD [13]: 2.1 µM
MIC ± SD [14]: 0.16 µM
MIC ± SD [15]: 0.93 ± 0.36 µM
MIC ± SD [16]: 7.8 µM
activity of BacSp222 after incubation with the enzyme [17]: not significantly reduced
activity of BacSp222 after incubation with the enzyme (human cathepsin G): not significantly reduced
